Data reported in publication PMC6161179, “Looking for Novel Capsid Protein Multimerization Inhibitors of Feline Immunodeficiency Virus” (Pharmaceuticals, 2018).
Where two headings read alike, the source gives them in different places.

Legend:
[1] = tested on: HIV-1 capsid protein; parameters: method as in PMID 12662926; conditions: read-out: EC50 (affinity); cited from earlier work
[2] = tested on: HIV-1; parameters: method as in PMID 12662926; conditions: at 100 µM; cited from earlier work
[3] = target: T1, FIV CA (p24) (Feline immunodeficiency virus, UniProt P16087); assay: Microscale thermophoresis (MST) binding to CA
T1 construct: The FIV CA protein was expressed and purified mostly as described; made in house; host or cells: Escherichia coli BL21(DE3) pLysS
Protocol: The major disadvantage of this method is the interference of the compound with the measurement, either by autofluorescence or quenching.
We explored the binding affinity at two different times (10 and 60 min) to enhance the poetical interactions.
MTS experiments were performed according to the NanoTemper technologies protocol in a Monolith NT.115 (green/blue) instrument (NanoTemper Technologies, München, Germany). With this technique, the diffusion behavior of a labeled protein is measured when an infrared light excites the movement of the protein in capillaries. This behavior is the combination of two effects: the fast, local environment dependent responses of the fluorophore to the temperature jump and the slower diffusive thermophoresis fluorescence changes. It will be modified when the protein is complexed with increasing amounts of unlabeled partners, leading to titration curves that can be fit for Kd estimation. In practice, CA was labeled with the Monolith His-Tag Labeling Kit RED-tris-NTA (NanoTemper Technologies, München, Germany), as described by the manufacturer. The experiments were performed using 20% and 40% MST power and between 20–80% LED power at 24 °C. The MST traces were recorded using the standard parameters: 5 s MST power off, 30 s MST power on, and 5 s MST power off. The compounds were used at high concentrations (around 5 mM) in the bindings check assay with DMSO at 5% v/v. If the binding check was positive, then the affinity determination was performed with the same experimental settings, with serial 2× dilutions of the compound of interest.

[4] = target: T1, FIV CA (p24); assay: In vitro CA assembly assay (spectrophotometry / light scattering); assay type: biochemical; conditions: re-validated by light scattering and spectrophotometry; compounds at 25 or 50 µM
Protocol: Indeed, our initial assay used light scattering and could only monitor the assembly of one sample per experiment on 40 min kinetics. […] The use of the spectrometric technique to follow capsid assembly has been described for HIV [24] and is based on the detection of capsid assembly via the measurement of the increase of medium turbidity. The use of this technique to monitor FIV p24 assembly allowed us to use 384-well plates, reducing the volume of protein to 15 µL per sample and allowing a testing of 10 compounds, in duplicate, in 40 min. Moreover, in this format, the protein concentration (5 mg/mL) was enough to start the assembly without needing the high concentration of salt used in the HIV in vitro assembly assay. High salt concentration could cause a problem by interfering with the solvation and solubility of some molecules and the loss of their interaction with the target. The only limitation of this method using low volumes was the risk of introducing air bubbles in the reaction, which interfere negatively in the absorbance measurement. However, this issue was solved by a careful manipulation in the filling process of the plates.
With this spectrometric assembly assay, we were able to discriminate two different behaviors for compounds interfering with the assembly of FIV CA: the enhancement of the assembly or its inhibition. The enhancement of assembly is associated with an increase of the diameter of the assembled objects and could result in a disordered or altered capsid with a loss of function. Inhibition is the classical effect which would impair the formation of the capsid (Figure 3).
High nitrogen content heretocycles were not a good source of bioactive molecules. Some compounds with structural similarities with Bevirimat were also active, like some steroid compounds clustered in diverse families. […] We could not find active molecules in four families (i.e., selenium containing compounds, flavones, triazines, and indazoles).
The CA assembly assay was performed in a final volume of 50 μL in 384-well plates, with a final concentration of 5 mg/mL of purified recombinant FIV […] in 50 mM NaH2PO4 and 1 M NaCl, pH 7.4. Absorbance is measured at 340 nm every 30 s in a multiplate reader Varioskan^TM Flash Multimode Reader (Thermo Scientific^TM, Waltham, MA, USA) at 38 °C for 30 min. The compounds were tested at a fixed initial dose of 25 or 50 μM (at 0.5% DMSO v/v) by adding 1 µL of the concentrated ligand were added to the well before starting the measurement. The controls were CA at 5 mg/mL in only 0.5% DMSO v/v and CA without DMSO. The criteria to select active compounds were the observation of at least 50% of assembly inhibition at these doses, based on the reduction of the OD value at 340 nm at the plateau value compared to the controls.

[5] = tested on: J774.1 murine macrophage cells; assay: MTT cytotoxicity assay in J774.1 murine macrophages; assay type: cell-based; conditions: compound at 100µM, 48 h
Protocol: (§1) Vero cell lines (ATCC, Rockville, MD, USA) were cultivated in Dulbecco’s modified Eagles medium (DMEM) with 10% FCS in a humid atmosphere of 5% CO2 at 37 °C. Vero cells were seeded in 96-well plates at an initial density of 5 × 10^3 cells per well. J774.1 murine macrophage cells (ATCC, Manassas, VA, USA) were grown in DMEM culture milieu containing 4 mM L-glutamine and supplemented with 10% FCS. The cells were seeded in a 96-well plate (5 × 10^4 cells in 200 µL culture medium) and incubated at 37 °C in a 5% CO2 atmosphere for 48 h, to allow cell adhesion prior to drug testing. Both cell lines were exposed for 48 h (at 37 °C and 5% CO2) to the compounds (100 µM) or the solvent (0.4% DMSO) for the control, and additional controls (cells in medium) were used in each test. The cytotoxicity of the compounds was evaluated by MTT reduction assays. To proceed with the MTT assay, 20 μL of 3-(4,5-dimethylthiazol-2-yl)-2,5-diphenyl-2H-tetrazolium bromide (MTT) 5 mg/mL solution dissolved in 1× PBS was added to the wells and incubated for 4 h at 37 °C in a 5% CO2 controlled atmosphere. Next, the medium was aspirated and 100 μL of DMSO was added to each well and incubated at room temperature in the dark for 15 min with moderate orbital shaking. Optical density (OD) was read in a plate spectrophotometer (Thermo Scientific Varioskan® Flash Multimode, Waltham, MA, USA) at 570 and 690 nm wavelengths. Each experiment was performed in triplicate. For the statistical analyses, the GraphPad Prism 6 was used. Dunnett’s multiple comparison tests and Student’s T-test were used when we compared the averages of each condition with the control.

[6] = tested on: Vero cell lines; assay: MTT cytotoxicity assay in Vero cells; assay type: cell-based; conditions: compound at 100µM, 48 h
Protocol: as §1

[7] = tested on: murine macrophages; parameters: method as in PMID 28481276; conditions: read-out: cytotoxicity IC50; cited from earlier work
[8] = tested on: five different enzymes from pathogen parasites; parameters: method as in PMID 20889239, PMID 28481276; conditions: at 100 µM; cited from earlier work
[9] = tested on: murine acute infection model of the Chagas disease; parameters: method as in PMID 26492824; conditions: 100 mg/kg body for 15 days; cited from earlier work
[10] = 1 h (60 min), read-out: 1h EC50

T1 sequence (P16087 136-357): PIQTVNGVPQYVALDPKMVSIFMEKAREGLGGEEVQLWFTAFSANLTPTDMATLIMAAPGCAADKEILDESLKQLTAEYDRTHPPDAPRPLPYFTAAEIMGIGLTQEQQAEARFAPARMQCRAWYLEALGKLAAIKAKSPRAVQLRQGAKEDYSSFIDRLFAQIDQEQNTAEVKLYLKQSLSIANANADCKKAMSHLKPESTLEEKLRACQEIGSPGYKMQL

SMILES: Cc1ccc(NC(=O)NCCSCc2ccc(CN(C)C)o2)cc1Cl [CAP-1]
- EC50 [1]: 60 µM
- activity in the in vitro infection assay [2]: active

SMILES: O=C1C(=Cc2ccc([N+](=O)[O-])cc2)C(=O)N(CCc2ccccc2)S(=O)(=O)N1CCc1ccccc1 [compound 110]
- EC50 ([3]; 10 min, read-out: 10 min EC50): 1100 µM
- EC50 [3, 10]: 789 µM

SMILES: Nc1ccc(S(=O)(=O)c2ccc(Nc3c([N+](=O)[O-])c(Nc4ccc(S(=O)(=O)c5ccc(N)cc5)cc4)c4no[n+]([O-])c4c3[N+](=O)[O-])cc2)cc1 [compound 703]
- EC50 ([3]; 10 min, read-out: 10 min EC50): 320 µM
- EC50 [3, 10]: 720 µM

SMILES: C=CCn1c(C(=O)O)cs\c1=N/N=C/C=C/c1ccc(C)o1 [compound 789]
- EC50 ([3]; 10 min, read-out: 10 min EC50): 640 µM
- EC50 [3, 10]: 655 µM

SMILES: CC(/C=N/N1CCSCC1)=C\c1ccco1 [compound 878]
- inhibition of the assembly [4]: inhibition of the assembly
- EC50 ([3]; 10 min, read-out: 10 min EC50): 119 µM
- EC50 ([3]; 1 h (60 min), Figure 5 panel A, read-out: 1h EC50): 166 µM
- EC50 [3, 10]: 166 µM
- Murine macrophages (grown %) [5]: 98±8%
- VERO (grown %) [6]: 100±8%
- IC50 [7]: > 100 µM
- inhibitory effects [8]: did not display inhibitory effects

SMILES: C=CCn1c(C)cs\c1=N/N=C/C=C/c1cccs1 [compound 1128]
- EC50 ([3]; 10 min, read-out: 10 min EC50): 322 µM
- EC50 [3, 10]: 484 µM

SMILES: O=C(O)c1cs/c(=N/N=C/C=C/C=C/c2cccs2)n1-c1ccccc1 [compound 1136]
- inhibition of the assembly [4]: inhibition of the assembly
- EC50 ([3]; 10 min, read-out: 10 min EC50): 212 µM
- EC50 [3, 10]: 83 µM
- Murine macrophages (grown %) [5]: 95±7%
- VERO (grown %) [6]: 100±9%
- inhibitory effects [8]: did not display inhibitory effects

SMILES: C=CCN1C(=O)CS\C1=N/N=C/C=C/c1cccs1 [compound 1138]
- EC50 ([3]; 10 min, read-out: 10 min EC50): 242 µM
- EC50 [3, 10]: 180 µM

SMILES: O=C1/C(=C/C=C/c2ccccc2)CC/C1=C\C=C\c1ccccc1 [compound 1246]
- inhibition of the assembly [4]: inhibition of the assembly
- EC50 ([3]; 10 min, read-out: 10 min EC50): 390 µM
- EC50 [3, 10]: 239 µM
- Murine macrophages (grown %) [5]: 79±9%
- VERO (grown %) [6]: 89±5%
- IC50 [7]: > 100 µM
- toxic effect [9]: without toxic effect
- inhibitory effects [8]: did not display inhibitory effects

SMILES: C=CCn1c(C(=O)O)cs/c1=N\N=C\c1ccc(/C=N/N=c2\scc(C(=O)O)n2CC=C)cc1 [compound 1310]
- inhibition of the assembly [4]: inhibition of the assembly
- EC50 ([3]; 10 min, read-out: 10 min EC50): 655 µM
- EC50 [3, 10]: 670 µM
- Murine macrophages (grown %) [5]: 98±7%
- VERO (grown %) [6]: 95±7%
- inhibitory effects [8]: did not display inhibitory effects

SMILES: C=CCNC(=S)N/N=C/c1ccc2c(c1)c1cc(/C=N/NC(=S)NCC=C)ccc1n2CC(CC)CCCC (centres unmarked) [compound 1368]
- EC50 [3, 10]: 35 µM
